Tests used:
[1] = refractive index (Na D-line) (dimensionless); settings: 100 kPa, Liquid, minimum deviations angle
[2] = refractive index (Na D-line) (dimensionless); xn = mol fraction of the nth substance listed; settings: 100 kPa, Liquid, minimum deviations angle, x1 = 1

CCCCCC[n+]1ccn(C)c1.O=S(=O)([N-]S(=O)(=O)C(F)(F)F)C(F)(F)F
[1]
Settings | refractive index
282.99 K | 1.4329
284.26 K | 1.4324
285.8 K | 1.432
286.91 K | 1.4317
288.05 K | 1.4313
289.17 K | 1.431
290.22 K | 1.4307
291.28 K | 1.4304
292.38 K | 1.4301
293.39 K | 1.4298

CCCCCC[n+]1ccn(C)c1.O=S(=O)([N-]S(=O)(=O)C(F)(F)F)C(F)(F)F + Brc1ccccc1
[2]
Settings | refractive index
282.99 K | 1.4329
284.26 K | 1.4324
285.8 K | 1.432
286.91 K | 1.4317
288.05 K | 1.4313
289.17 K | 1.431
290.22 K | 1.4307
291.28 K | 1.4304
292.38 K | 1.4301
293.39 K | 1.4298

Brc1ccccc1 [bromobenzene]
[1]
Settings | refractive index
283 K | 1.5612
284.4 K | 1.5605
285.75 K | 1.5598
286.96 K | 1.5591
287.98 K | 1.5585
288.99 K | 1.558
290.11 K | 1.5574
291.22 K | 1.5568
292.32 K | 1.5563
293.32 K | 1.5557
